# Values joined by “and” are separate entries in the source; they are usually repeats but may differ in a detail not shown here. Equal values may be shown once. Read-outs that look alike come from different tables or passages of the source.
# What was measured:
# DDR2 = target: T1, DDR2 (Homo sapiens, UniProt Q16832); assay: nanoBRET off-target validation; format: cell-based
# T1 construct: host or cells: HEK293T (ATCC CRL-3216)
# T1 sequence (Q16832 22-855): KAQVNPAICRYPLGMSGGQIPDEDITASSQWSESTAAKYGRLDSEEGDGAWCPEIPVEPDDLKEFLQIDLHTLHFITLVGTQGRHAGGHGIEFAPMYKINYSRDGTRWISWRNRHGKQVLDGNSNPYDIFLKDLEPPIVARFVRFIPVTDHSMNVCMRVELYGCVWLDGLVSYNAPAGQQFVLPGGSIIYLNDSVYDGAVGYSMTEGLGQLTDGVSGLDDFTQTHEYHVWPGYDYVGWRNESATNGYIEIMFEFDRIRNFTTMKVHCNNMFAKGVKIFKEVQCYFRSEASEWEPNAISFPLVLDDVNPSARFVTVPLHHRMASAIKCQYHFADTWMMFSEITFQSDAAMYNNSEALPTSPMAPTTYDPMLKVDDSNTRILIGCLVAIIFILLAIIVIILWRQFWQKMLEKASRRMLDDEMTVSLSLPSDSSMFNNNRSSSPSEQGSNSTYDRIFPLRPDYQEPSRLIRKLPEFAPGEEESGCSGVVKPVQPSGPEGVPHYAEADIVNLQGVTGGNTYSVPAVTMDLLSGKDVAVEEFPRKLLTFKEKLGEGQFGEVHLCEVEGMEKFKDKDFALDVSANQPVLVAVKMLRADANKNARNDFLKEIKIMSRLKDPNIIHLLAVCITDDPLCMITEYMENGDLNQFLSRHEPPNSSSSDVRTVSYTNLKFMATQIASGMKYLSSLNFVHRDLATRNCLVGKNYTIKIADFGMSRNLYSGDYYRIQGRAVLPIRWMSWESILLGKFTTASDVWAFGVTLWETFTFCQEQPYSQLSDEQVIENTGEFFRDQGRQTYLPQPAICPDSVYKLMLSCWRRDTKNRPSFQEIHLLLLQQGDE
# Method: (§1) The assay was performed as described previously ([61]). In brief, full-length kinases as listed in table S6 were obtained as plasmids cloned in frame with terminal NanoLuc-fusion (gift from Promega; table S6). […] Serially diluted inhibitor and corresponding tracer as listed in table S6 at the Tracer KD concentration taken from TracerDB (tracerdb.org) ([62]) were pipetted into white 384-well plates (Greiner, 781207) using an ECHO acoustic dispenser (Labcyte). The corresponding protein-transfected cells were added and reseeded at a density of 2 × 10^5 cells/ml after trypsinization and resuspending in Opti-MEM without phenol red (Life Technologies). The system was allowed to equilibrate for 3 hours at 37°C/5% CO2 before bioluminescence resonance energy transfer (BRET) measurements. To measure BRET, NanoBRET NanoGlo Substrate + extracellular NanoLuc Inhibitor (Promega, N2540) was added as per the manufacturer’s protocol, and filtered luminescence was measured on a PHERAstar plate reader (BMG Labtech) equipped with a luminescence filter pair [450-nm BP filter (donor) and 610-nm LP filter (acceptor)]. […] (For step-by-step protocol, see www.eubopen.org/sites/www.eubopen.org/files/attachments/2021/NanoBRET-IC50_v1_0.pdf.)
# SLK = target: T2, SLK (Homo sapiens, UniProt Q9H2G2); assay: nanoBRET off-target validation; format: cell-based
# T2 construct: host or cells: HEK293T (ATCC CRL-3216)
# T2 sequence (Q9H2G2 whole entry): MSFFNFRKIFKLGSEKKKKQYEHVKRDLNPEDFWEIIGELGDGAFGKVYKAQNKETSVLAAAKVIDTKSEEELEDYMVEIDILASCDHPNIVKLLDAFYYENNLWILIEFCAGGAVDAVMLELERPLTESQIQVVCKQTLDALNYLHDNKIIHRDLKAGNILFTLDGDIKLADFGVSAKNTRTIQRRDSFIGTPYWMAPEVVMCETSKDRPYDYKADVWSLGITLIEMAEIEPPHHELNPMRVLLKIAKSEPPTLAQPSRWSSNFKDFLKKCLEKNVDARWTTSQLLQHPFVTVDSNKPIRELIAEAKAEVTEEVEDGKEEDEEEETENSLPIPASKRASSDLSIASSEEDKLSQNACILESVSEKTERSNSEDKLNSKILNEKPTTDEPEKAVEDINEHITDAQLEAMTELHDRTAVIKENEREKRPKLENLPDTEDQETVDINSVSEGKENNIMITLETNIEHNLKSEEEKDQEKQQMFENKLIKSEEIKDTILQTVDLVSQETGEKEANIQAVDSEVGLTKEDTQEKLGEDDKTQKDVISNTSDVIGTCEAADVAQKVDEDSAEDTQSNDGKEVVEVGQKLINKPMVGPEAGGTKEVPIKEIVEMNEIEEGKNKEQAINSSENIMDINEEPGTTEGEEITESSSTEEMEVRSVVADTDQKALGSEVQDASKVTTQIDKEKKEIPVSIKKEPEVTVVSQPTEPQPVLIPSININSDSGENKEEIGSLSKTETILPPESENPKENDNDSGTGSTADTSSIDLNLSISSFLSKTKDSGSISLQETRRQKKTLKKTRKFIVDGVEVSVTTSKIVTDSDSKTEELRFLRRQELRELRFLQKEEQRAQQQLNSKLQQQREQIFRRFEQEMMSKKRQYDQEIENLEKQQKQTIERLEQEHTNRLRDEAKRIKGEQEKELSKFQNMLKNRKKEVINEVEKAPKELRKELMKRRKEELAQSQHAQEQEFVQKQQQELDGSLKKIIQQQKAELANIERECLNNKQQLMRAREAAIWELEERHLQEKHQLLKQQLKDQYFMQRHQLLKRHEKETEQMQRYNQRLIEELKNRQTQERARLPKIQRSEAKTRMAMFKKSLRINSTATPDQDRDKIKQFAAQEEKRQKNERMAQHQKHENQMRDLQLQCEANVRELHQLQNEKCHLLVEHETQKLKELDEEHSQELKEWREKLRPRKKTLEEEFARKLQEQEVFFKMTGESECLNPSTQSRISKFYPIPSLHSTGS
# Method: as §1
smiles,measurement,setting,value
CCSc1nc(NC)c2c(-c3cccc(NC(=O)Nc4cc(C(C)(C)C)nn4-c4ccc(C)cc4)c3)c[nH]c2n1 [Compound 32],EC50,DDR2,> 20 µM
same,remaining tracer BRET signal at 0.008 µM,"DDR2; DDR2, inhibitor 8 nM, two replicates, read-out: nanoBRET response normalized to 0% (no tracer) and 100% (no inhibitor) control",102% and 95.3%
same,nanoBRET response normalized to 0% (no tracer) and 100% (no inhibitor) control,"DDR2; DDR2, inhibitor 16 nM, two replicates, listed as RN341, 0.016 µM",102.202%
same,remaining tracer BRET signal at 0.016 µM,"DDR2; DDR2, inhibitor 16 nM, two replicates, read-out: nanoBRET response normalized to 0% (no tracer) and 100% (no inhibitor) control",105%
same,nanoBRET response normalized to 0% (no tracer) and 100% (no inhibitor) control,"DDR2; DDR2, inhibitor 50 nM, two replicates, listed as RN341, 0.05 µM",98.4821%
same,remaining tracer BRET signal at 0.05 µM,"DDR2; DDR2, inhibitor 50 nM, two replicates, read-out: nanoBRET response normalized to 0% (no tracer) and 100% (no inhibitor) control",114%
same,nanoBRET response normalized to 0% (no tracer) and 100% (no inhibitor) control,"DDR2; DDR2, inhibitor 250 nM, two replicates, listed as RN341, […]",104.362%
same,remaining tracer BRET signal at […],"DDR2; DDR2, inhibitor 250 nM, two replicates, read-out: nanoBRET response normalized to 0% (no tracer) and 100% (no inhibitor) control",123%
same,nanoBRET response normalized to 0% (no tracer) and 100% (no inhibitor) control,"DDR2; DDR2, inhibitor 500 nM, two replicates, listed as RN341, 0.5 µM",117.148%
same,remaining tracer BRET signal at 0.5 µM,"DDR2; DDR2, inhibitor 500 nM, two replicates, read-out: nanoBRET response normalized to 0% (no tracer) and 100% (no inhibitor) control",129%
same,nanoBRET response normalized to 0% (no tracer) and 100% (no inhibitor) control,"DDR2; DDR2, inhibitor 2500 nM, two replicates, listed as RN341, […]",86.9292%
same,remaining tracer BRET signal at […],"DDR2; DDR2, inhibitor 2500 nM, two replicates, read-out: nanoBRET response normalized to 0% (no tracer) and 100% (no inhibitor) control",103%
same,nanoBRET response normalized to 0% (no tracer) and 100% (no inhibitor) control,"DDR2; DDR2, inhibitor 5000 nM, two replicates, listed as RN341, 5 µM",105.865%
same,remaining tracer BRET signal at 5 µM,"DDR2; DDR2, inhibitor 5000 nM, two replicates, read-out: nanoBRET response normalized to 0% (no tracer) and 100% (no inhibitor) control",89.9%
same,nanoBRET response normalized to 0% (no tracer) and 100% (no inhibitor) control,"DDR2; DDR2, inhibitor 25000 nM, two replicates, listed as RN341, 25 µM",54.8632%
same,remaining tracer BRET signal at 25 µM,"DDR2; DDR2, inhibitor 25000 nM, two replicates, read-out: nanoBRET response normalized to 0% (no tracer) and 100% (no inhibitor) control",55.4%
same,EC50,SLK,> 20 µM
same,nanoBRET response normalized to 0% (no tracer) and 100% (no inhibitor) control,"SLK; SLK, inhibitor 8 nM, two replicates, listed as RN341, 0.008 µM",107.417%
same,NanoBRET tracer signal (% of no-inhibitor control) at 0.008 µM,"SLK; SLK, inhibitor 8 nM, two replicates, read-out: nanoBRET response normalized to 0% (no tracer) and 100% (no inhibitor) control",106%
same,nanoBRET response normalized to 0% (no tracer) and 100% (no inhibitor) control,"SLK; SLK, inhibitor 16 nM, two replicates, listed as RN341, 0.016 µM",115.381%
same,NanoBRET tracer signal (% of no-inhibitor control) at 0.016 µM,"SLK; SLK, inhibitor 16 nM, two replicates, read-out: nanoBRET response normalized to 0% (no tracer) and 100% (no inhibitor) control",113%
same,NanoBRET tracer signal (% of no-inhibitor control) at 0.05 µM,"SLK; SLK, inhibitor 50 nM, two replicates, read-out: nanoBRET response normalized to 0% (no tracer) and 100% (no inhibitor) control",102% and 106%
same,nanoBRET response normalized to 0% (no tracer) and 100% (no inhibitor) control,"SLK; SLK, inhibitor 250 nM, two replicates, listed as RN341, […]",119.576%
same,NanoBRET tracer signal (% of no-inhibitor control) at […],"SLK; SLK, inhibitor 250 nM, two replicates, read-out: nanoBRET response normalized to 0% (no tracer) and 100% (no inhibitor) control",107%
same,nanoBRET response normalized to 0% (no tracer) and 100% (no inhibitor) control,"SLK; SLK, inhibitor 500 nM, two replicates, listed as RN341, 0.5 µM",122.526%
same,NanoBRET tracer signal (% of no-inhibitor control) at 0.5 µM,"SLK; SLK, inhibitor 500 nM, two replicates, read-out: nanoBRET response normalized to 0% (no tracer) and 100% (no inhibitor) control",118%
same,nanoBRET response normalized to 0% (no tracer) and 100% (no inhibitor) control,"SLK; SLK, inhibitor 2500 nM, two replicates, listed as RN341, […]",114.832%
same,NanoBRET tracer signal (% of no-inhibitor control) at […],"SLK; SLK, inhibitor 2500 nM, two replicates, read-out: nanoBRET response normalized to 0% (no tracer) and 100% (no inhibitor) control",117%
same,nanoBRET response normalized to 0% (no tracer) and 100% (no inhibitor) control,"SLK; SLK, inhibitor 5000 nM, two replicates, listed as RN341, 5 µM",116.499%
same,NanoBRET tracer signal (% of no-inhibitor control) at 5 µM,"SLK; SLK, inhibitor 5000 nM, two replicates, read-out: nanoBRET response normalized to 0% (no tracer) and 100% (no inhibitor) control",105%
same,nanoBRET response normalized to 0% (no tracer) and 100% (no inhibitor) control,"SLK; SLK, inhibitor 25000 nM, two replicates, listed as RN341, 25 µM",86.6362%
same,NanoBRET tracer signal (% of no-inhibitor control) at 25 µM,"SLK; SLK, inhibitor 25000 nM, two replicates, read-out: nanoBRET response normalized to 0% (no tracer) and 100% (no inhibitor) control",83.9%

# Reference: publication PMC12136037, “Type II kinase inhibitors that target Parkinson’s disease–associated LRRK2” (Science Advances, 2025)
